One test concerns the target OX2 receptor (Homo sapiens (Human), UniProt O43614). Kind of test: In vitro activity test (Cisbio IP-one, CHO-K1-OX2 cells, antagonism of EC80 agonist). Format: cell-based. How it is done: (§1) (1) Preparation of a reaction buffer (1×Stimulation buffer) required for the experiment: The 5×Stimulation buffer and ddH2O in the Cisbio IP-one kit were diluted in a ratio of 1:4 for later use.
(§2) (2) Compound preparation: The compound was diluted with DMSO to obtain a 5 mM stock solution, followed by a 3.16-fold dilution to obtain 10 gradients, and then the prepared compound was diluted with the Stimulation buffer to the corresponding concentrations (4×) for later use.
(§3) (3) Cell preparation: CHO-K1-OX1 and CHO-K1-OX2 cells on the culture dish were digested with trypsin, and the cells were washed off with culture medium and collected into 5 mL centrifuge tubes. The cells were centrifuged at 1000 rpm for 5 min, and the supernatant was discarded. 3 mL of PBS was added, and the mixture was gently pipetted to be mixed well. The cells were centrifuged again at 1000 rpm for 5 min, and the supernatant was discarded. The cells were resuspended in 1×Stimulation buffer and counted using a Countstar cell counter, and the cell density was adjusted to 1.71×10^6 cells/mL for later use.
(§4) (4) Cell addition: The cell suspensions were added to assay plates at 7 μL/well (i.e., about 12,000 cells/well).
(§5) (5) Compound addition: The compound diluted with the Stimulation buffer was added to the assay plates described above at 3.5 μL/well.
(§6) (6) Reaction and incubation: After gentle shaking, the assay plates were incubated at 37° C. for 30 min.
(§7) (7) EC80 agonist addition: 4×Orexin A (OX1 receptor) and 4×Orexin 2 receptor agonist (OX2 receptor) solutions of EC80 were added at 3.5 μL/well.
(§8) (8) Reaction and incubation: After gentle shaking, the assay plates were incubated at 37° C. for 45 min.
(§9) (9) Detection reagent addition: IP1-d2 and Anti-IP1 cryptate were separately diluted in a 1:20 ratio with the Lysis & detection buffer in the Cisbio IP-one detection kit, and the diluted IP1-d2 and Anti-IP1 cryptate described above were added to the assay plates, each at 3 μL/well. After shaking, the assay plates were left to stand at room temperature for 60 min.
(§10) (10) Experimental readings: The plate was read on Envision, readings from the 665 nm and 615 nm channels were taken, and the ratio of 665 nm/615 nm readings was calculated.
(§11) Based on the antagonistic effect values of the compound sample at different concentration test points, antagonistic curves of the compound sample against the orexin receptors were fitted using GraphPad Prism software, and the IC50 was calculated.

Another test deals with OX1 receptor (Homo sapiens (Human), UniProt O43613). Kind of test: In vitro activity test (Cisbio IP-one, CHO-K1-OX1 cells, antagonism of EC80 Orexin A). Format: cell-based. How it is done:
as §1, §2, §3, §4, §5, §6, §7, §8, §9, §10, §11

Sequence of OX2 receptor (O43614 whole entry): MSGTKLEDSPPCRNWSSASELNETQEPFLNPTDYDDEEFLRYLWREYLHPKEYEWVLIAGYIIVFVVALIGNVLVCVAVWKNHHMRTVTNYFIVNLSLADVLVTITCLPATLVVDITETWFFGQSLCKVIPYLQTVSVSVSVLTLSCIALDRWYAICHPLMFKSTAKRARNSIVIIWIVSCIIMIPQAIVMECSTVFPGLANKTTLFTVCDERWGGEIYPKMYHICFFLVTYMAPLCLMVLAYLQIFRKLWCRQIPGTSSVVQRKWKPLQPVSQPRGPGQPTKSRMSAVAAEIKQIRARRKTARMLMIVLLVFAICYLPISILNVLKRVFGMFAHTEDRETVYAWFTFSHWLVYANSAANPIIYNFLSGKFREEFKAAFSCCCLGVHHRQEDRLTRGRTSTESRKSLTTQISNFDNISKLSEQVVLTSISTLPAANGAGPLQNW
Sequence of OX1 receptor (O43613 whole entry): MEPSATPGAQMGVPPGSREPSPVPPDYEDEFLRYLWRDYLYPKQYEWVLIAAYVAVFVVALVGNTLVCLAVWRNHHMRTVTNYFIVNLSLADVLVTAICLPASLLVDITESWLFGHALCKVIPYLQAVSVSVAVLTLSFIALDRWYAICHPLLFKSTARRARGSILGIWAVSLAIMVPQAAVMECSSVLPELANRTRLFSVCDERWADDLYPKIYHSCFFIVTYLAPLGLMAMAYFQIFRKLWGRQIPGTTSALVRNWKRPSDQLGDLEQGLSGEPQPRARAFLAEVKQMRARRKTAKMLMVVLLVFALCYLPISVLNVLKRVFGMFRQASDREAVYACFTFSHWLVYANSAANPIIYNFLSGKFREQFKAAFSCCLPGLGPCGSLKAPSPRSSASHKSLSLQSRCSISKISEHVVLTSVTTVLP

Usually IC50 stands for the midpoint of a concentration-inhibition curve. Low values mean greater potency, high ones weaker potency. `Cc1cc(C)nc(N2C[C@H]3CN(C(=O)c4c(-c5ccccc5)cn5ccccc45)C[C@H]3C2)n1` [Example 1, ((3aR,6aS)-5-(4,6-dimethylpyrimidin-2-yl)hexahydropyrrolo[3,4-c]pyrrol-2(1H)-yl)(2-phenylindolizin-1-yl)methanone]: the results for the concentration for half-maximal inhibition (IC50) on OX2 receptor and against OX1 receptor were 100 to 300 nM and more than 1000 nM, respectively. For `Cc1cc(C)nc(N2C[C@H]3CN(C(=O)c4c(-c5ccccn5)cn5ccccc45)C[C@H]3C2)n1` [Example 2, ((3aR,6aS)-5-(4,6-dimethylpyrimidin-2-yl)hexahydropyrrolo[3,4-c]pyrrol-2(1H)-yl)(2-(pyridin-2-yl)indolizin-1-yl)methanone], in that order: 100 to 300 nM and more than 1000 nM. In the case of `Cc1cc(C)nc(N2C[C@H]3CN(C(=O)c4c(-c5ccc(C)s5)cn5ccccc45)C[C@H]3C2)n1` [Example 4, ((3aR,6aS)-5-(4,6-dimethylpyrimidin-2-yl)hexahydropyrrolo[3,4-c]pyrrol-2(1H)-yl)(2-(5-methylthiophen-2-yl)indolizin-1-yl)methanone], the IC50 at OX2 receptor is less than 100 nM; against OX1 receptor, more than 1000 nM. With `Cc1cc(C)nc(N2C[C@H]3CN(C(=O)c4c(-c5ccccn5)nn5ccccc45)C[C@H]3C2)n1` [Example 6, ((3aR,6aS)-5-(4,6-dimethylpyrimidin-2-yl)hexahydropyrrolo[3,4-c]pyrrol-2(1H)-yl)(2-(pyridin-2-yl)pyrazolo[1,5-a]pyridin-3-yl)methanone], the IC50 was less than 100 nM at OX2 receptor and more than 1000 nM against OX1 receptor. In the case of `Cc1nc(N2C[C@H]3CN(C(=O)c4c(-c5ncccc5F)cn5ccccc45)C[C@H]3C2)nc2ccoc12` [Example 7, (2-(3-fluoropyridin-2-yl)indolizin-1-yl)((3aR,6aS)-5-(4-methylfuro [3,2-d]pyrimidin-2-yl)hexahydropyrrolo[3,4-c]pyrrol-2(1H)-yl)methanone], the figures for the IC50 at OX2 receptor and against OX1 receptor were less than 100 nM and more than 1000 nM, respectively. As for `Cc1nc(N2C[C@H]3CN(C(=O)c4c(-c5ncccc5F)cn5ccccc45)C[C@H]3C2)nn2cccc12` [Example 8, (2-(3-Fluoropyridin-2-yl)indolizin-1-yl)((3aR,6aS)-5-(4-methylpyrrolo [2,1-f][1,2,4]triazin-2-yl)hexahydropyrrolo[3,4-c]pyrrol-2(1H)-yl)methanone], the concentration for half-maximal inhibition (IC50) at OX2 receptor was less than 100 nM; on OX1 receptor it was more than 1000 nM. `Cc1cc(C)nc(N2C[C@H]3CN(C(=O)c4c(-c5nccs5)cn5ccccc45)C[C@H]3C2)n1` [Example 9, ((3aR,6aS)-5-(4,6-dimethylpyrimidin-2-yl)hexahydropyrrolo[3,4-c]pyrrol-2(1H)-yl)(2-(thiazol-2-yl)indolizin-1-yl)methanone]: the half-maximal inhibitory concentration (IC50) at OX2 receptor is 100 to 300 nM; on OX1 receptor it was more than 1000 nM. As to `O=C(c1c(-c2ncccc2F)cn2ccccc12)N1C[C@@H]2CN(c3cnc4ccccc4n3)C[C@@H]2C1` [Example 10, (2-(3-Fluoropyridin-2-yl)indolizin-1-yl)((3aR,6aS)-5-(quinoxalin-2-yl)hexahydropyrrolo[3,4-c]pyrrol-2(1H)-yl)methanone], the IC50 was 100 to 300 nM at OX2 receptor and more than 1000 nM on OX1 receptor.

In the case of `Cc1cc(C)nc(N2C[C@H]3CN(C(=O)c4c(-c5ncccc5C(F)(F)F)cn5ccccc45)C[C@H]3C2)n1` [Example 11, ((3aR,6aS)-5-(4,6-dimethylpyrimidin-2-yl)hexahydropyrrolo[3,4-c]pyrrol-2(1H)-yl)(2-(3-(trifluoromethyl)pyridin-2-yl)indolizin-1-yl)methanone], the IC50 at OX2 receptor is 100 to 300 nM; against OX1 receptor, more than 1000 nM. Take `Cc1cc(C)nc(N2C[C@H]3CN(C(=O)c4c(-c5ccccc5)nn5cccnc45)C[C@H]3C2)n1` [Example 12, ((3aR,6aS)-5-(4,6-dimethylpyrimidin-2-yl)hexahydropyrrolo[3,4-c]pyrrol-2(1H)-yl)(2-phenylpyrazolo[1,5-a]pyrimidin-3-yl)methanone]: the IC50 at OX2 receptor was 100 to 300 nM; against OX1 receptor, more than 1000 nM.

Consider `Cc1cc(C)nc(N2C[C@H]3CN(C(=O)c4c(-c5ccccc5)nn5ccncc45)C[C@H]3C2)n1` [Example 13, ((3aR,6aS)-5-(4,6-dimethylpyrimidin-2-yl)hexahydropyrrolo[3,4-c]pyrrol-2(1H)-yl)(2-phenylpyrazolo[1,5-a]pyrazin-3-yl)methanone], for which the IC50 at OX2 receptor was 100 to 300 nM; against OX1 receptor, more than 1000 nM. On the same counts, the results for `Cc1cc(C)nc(N2C[C@H]3CN(C(=O)c4c(-c5ccccc5)nn5ncccc45)C[C@H]3C2)n1` [Example 14, ((3aR,6aS)-5-(4,6-dimethylpyrimidin-2-yl)hexahydropyrrolo[3,4-c]pyrrol-2(1H)-yl)(2-phenylpyrazolo[1,5-b]pyridazin-3-yl)methanone] are 100 to 300 nM and more than 1000 nM. On the same counts, the results for `Cc1cc(C)nc(N2C[C@H]3CN(C(=O)c4c(-c5ccccc5F)cn5ccccc45)C[C@H]3C2)n1` [Example 15, ((3aR,6aS)-5-(4,6-dimethylpyrimidin-2-yl)hexahydropyrrolo[3,4-c]pyrrol-2(1H)-yl)(2-(2-fluorophenyl)indolizin-1-yl)methanone] are less than 100 nM and more than 1000 nM. As for `Cc1cc(C)nc(N2C[C@H]3CN(C(=O)c4c(-c5ccsc5)cn5ccccc45)C[C@H]3C2)n1` [Example 17, ((3aR,6aS)-5-(4,6-dimethylpyrimidin-2-yl)hexahydropyrrolo[3,4-c]pyrrol-2(1H)-yl)(2-(thiophen-3-yl)indolizin-1-yl)methanone], the IC50 at OX2 receptor was less than 100 nM. Consider `Cc1cc(C)nc(N2C[C@H]3CN(C(=O)c4c(-c5ncccc5F)cn5cc(F)ccc45)C[C@H]3C2)n1` [Example 18, ((3aR,6aS)-5-(4,6-dimethylpyrimidin-2-yl)hexahydropyrrolo[3,4-c]pyrrol-2(1H)-yl)(6-fluoro-2-(3-fluoropyridin-2-yl)indolizin-1-yl)methanone], for which the IC50 was less than 100 nM at OX2 receptor and more than 1000 nM against OX1 receptor. With `Cc1cc(C)nc(N2C[C@H]3CN(C(=O)c4c(-c5ccccn5)cn5cc(F)ccc45)C[C@H]3C2)n1` [Example 19, ((3aR,6aS)-5-(4,6-dimethylpyrimidin-2-yl)hexahydropyrrolo[3,4-c]pyrrol-2(1H)-yl)(6-fluoro-2-(pyridin-2-yl)indolizin-1-yl)methanone], the results for the IC50 at OX2 receptor and against OX1 receptor were less than 100 nM and more than 1000 nM, respectively. Consider `Cc1cc(C)nc(N2C[C@H]3CN(C(=O)c4c(-c5ncco5)cn5ccccc45)C[C@H]3C2)n1` [Example 20, ((3aR,6aS)-5-(4,6-dimethylpyrimidin-2-yl)hexahydropyrrolo[3,4-c]pyrrol-2(1H)-yl)(2-(oxazol-2-yl)indolizin-1-yl)methanone], for which the figures for the IC50 at OX2 receptor and against OX1 receptor were less than 100 nM and more than 1000 nM, respectively. Consider `Cc1cc(C)nc(N2C[C@H]3CN(C(=O)c4c(-c5ncccn5)cn5ccccc45)C[C@H]3C2)n1` [Example 21, ((3aR,6aS)-5-(4,6-dimethylpyrimidin-2-yl)hexahydropyrrolo[3,4-c]pyrrol-2(1H)-yl)(2-(pyrimidin-2-yl)indolizin-1-yl)methanone], for which the IC50 on OX2 receptor was less than 100 nM; at OX1 receptor it was more than 1000 nM. For `Cc1nc(N2C[C@H]3CN(C(=O)c4c(-c5ccccn5)cn5ccccc45)C[C@H]3C2)nc(C)c1F` [Example 24, ((3aR,6aS)-5-(5-fluoro-4,6-dimethylpyrimidin-2-yl)hexahydropyrrolo [3,4-c]pyrrol-2(1H)-yl)(2-(pyridin-2-yl)indolizin-1-yl)methanone], in that order: less than 100 nM and more than 1000 nM. For `Cc1nc(N2C[C@H]3CN(C(=O)c4c(-c5ncccc5F)cn5ccccc45)C[C@H]3C2)nc2c1CCC2` [Example 26, (2-(3-fluoropyridin-2-yl)indolizin-1-yl)((3aR,6aS)-5-(4-methyl-6,7-dihydro-5H-cyclopenta[d]pyrimidin-2-yl)hexahydropyrrolo[3,4-c]pyrrol-2(1H)-yl)methanone], in that order: less than 100 nM and more than 1000 nM.

On to `Cc1cc(C)nc(N2C[C@H]3CN(C(=O)c4c(-c5cccs5)cn5ccccc45)C[C@H]3C2)n1` [Example 28], for which the IC50 at OX2 receptor is less than 100 nM; at OX1 receptor it was more than 1000 nM.

The values above are taken from patent US20250188095A1, “DISUBSTITUTED OCTAHYDROPYRROLO[3,4-c]PYRROLYL METHYL KETONE DERIVATIVE AND USE THEREOF” (JIANGSU NHWA PHARMACEUTICAL CO., LTD, priority 2022, published 2025).
